Our source for the Km values is US20140357487A1, “PLANTS HAVING INCREASED TOLERANCE TO HERBICIDES” (BASF SE, priority 2011, published 2014).

The target of one test is T1, Hordeum HPPD (SEQ ID: 2) (Hordeum vulgare, UniProt O48604, A164G/R146V/R147D/R148G).
T1 construct: His (N); made in house; host or cells: E. coli BL21 (DE3)
The test can be described thus: HPPD activity assay, Hordeum wild-type HPPD. It counts as biochemical. To be noted: Hordeum HPPD; substrate; read-out: michaelis constant Km (4-HPP). How it is done: (§1) HPPD produces homogentisic acid and CO2 from 4-hydroxyphenylpyruvate (4-HPP) and O2. The activity assay for HPPD is based on the analysis of homogentisic acid by reversed phase HPLC.
(§2) The assay mixture can contain 150 mM potassium phosphate buffer pH 7.0, 50 mM L-ascorbic acid, 1 μM FeSO4 and 7 μg of purified enzyme in a total volume of 1 ml.
(§3) Inhibitors are dissolved in DMSO (dimethylsulfoxide) to a concentration of 20 mM or 0.5 mM, respectively. From this stock solution serial five-fold dilutions are prepared in DMSO, which are used in the assay. The respective inhibitor solution accounts for 1% of the assay volume. […] After a preincubation of 30 min the reaction is started by adding 4-HPP to a final concentration of 0.1 mM. The reaction is allowed to proceed for 120 min at room temperature. The reaction is stopped by addition of 100 μl of 4.5 M phosphoric acid.
(§4) Activities are normalized by setting the uninhibited enzyme activity to 100%. IC50 values are calculated using non-linear regression.
(§5) The assay mixture can contain 150 mM potassium phosphate buffer pH 7.0, 50 mM L-ascorbic acid, 100 μM Catalase (Sigma-Aldrich), 1 μM FeSO4 and 0.2 units of purified HPPD enzyme in a total volume of 505 μl. 1 unit is defined as the amount of enzyme that is required to produce 1 nmol of HGA per minute at 20° C.
(§6) Inhibitors are dissolved in DMSO (dimethylsulfoxide) to a concentration of 0.5 mM. From this stock solution serial five-fold dilutions are prepared in DMSO, which are used in the assay. The respective inhibitor solution accounts for 1% of the assay volume. […] Activities are normalized by setting the uninhibited enzyme activity to 100%. IC50 values are calculated using non-linear regression.
(§7) Using methods which are described in the above examples or well known in the art, purified, recombinant wildtype HPPD enzymes are characterized with respect to their kinetic properties and sensitivity towards HPPD inhibiting herbicides. Apparent michaelis constants (Km) and maximal reaction velocities (Vmax) are calculated by non-linear regression with the software GraphPad Prism 5 (GraphPad Software, La Jolla, USA) using a substrate inhibition model.
(§8) Field performance of the HPPD enzyme, which is used as a herbicide tolerance trait, may depend not only on its lack of sensitivity towards HPPD inhibiting herbicides but also on its activity. To assess the potential performance of a herbicide tolerance trait a tolerance index (TI) is calculated using the following formula: […]

The target of test [1] is T2, Arabidopsis HPPD (SEQ ID: 53) (Arabidopsis thaliana, UniProt P93836).
T2 construct: His6 (N); made in house; host or cells: E. coli BL21 (DE3)
T2 sequence (P93836 1-445): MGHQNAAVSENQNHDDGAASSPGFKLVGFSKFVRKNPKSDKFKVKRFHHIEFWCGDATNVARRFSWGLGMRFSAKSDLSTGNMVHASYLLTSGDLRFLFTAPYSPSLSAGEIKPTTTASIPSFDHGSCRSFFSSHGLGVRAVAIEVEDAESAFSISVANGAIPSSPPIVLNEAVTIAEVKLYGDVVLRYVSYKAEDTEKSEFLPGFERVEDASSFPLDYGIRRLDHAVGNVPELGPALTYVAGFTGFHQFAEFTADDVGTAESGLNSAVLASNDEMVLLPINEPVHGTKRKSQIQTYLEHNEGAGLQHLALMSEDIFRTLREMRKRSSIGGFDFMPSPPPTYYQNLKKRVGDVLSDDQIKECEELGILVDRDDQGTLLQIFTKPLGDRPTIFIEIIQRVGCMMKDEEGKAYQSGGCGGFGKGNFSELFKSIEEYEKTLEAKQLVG
The test can be described thus: HPPD activity assay, Arabidopsis wild-type HPPD. It counts as biochemical. The note with it: Arabidopsis HPPD; substrate; read-out: michaelis constant Km (4-HPP). On the procedure: as §1, §2, §3, §4, §5, §6, §7, §8
Easy comparison and ranking of each trait is enabled by normalizing tolerance indexes on Arabidopsis wild-type HPPD.

T1 sequence (O48604 whole entry R146V/R147D/R148G/A164G): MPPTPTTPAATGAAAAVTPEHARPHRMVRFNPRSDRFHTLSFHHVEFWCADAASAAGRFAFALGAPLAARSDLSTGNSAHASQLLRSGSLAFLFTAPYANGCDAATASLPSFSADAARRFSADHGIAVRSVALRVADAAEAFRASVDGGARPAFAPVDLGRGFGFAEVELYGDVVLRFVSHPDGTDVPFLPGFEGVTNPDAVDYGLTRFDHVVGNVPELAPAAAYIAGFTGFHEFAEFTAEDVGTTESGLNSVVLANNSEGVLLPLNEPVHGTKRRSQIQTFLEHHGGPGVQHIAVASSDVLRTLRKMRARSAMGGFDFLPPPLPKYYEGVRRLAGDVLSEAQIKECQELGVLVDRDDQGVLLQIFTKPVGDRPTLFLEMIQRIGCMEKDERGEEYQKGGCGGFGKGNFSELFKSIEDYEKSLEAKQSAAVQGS

For the compound `O=C(O)C(=O)Cc1ccc(O)cc1` [Inhibitor 4-HPP, 4-hydroxyphenylpyruvate, reference compound], the Km at Hordeum HPPD (SEQ ID: 2) was found to be 26 µM; in test [1], 13 µM.
